“Also recorded” adds a separate entry of the source. Where two headings read alike, the source gives them in different places.
How the values were obtained:
[1] = test system: MAP Dominic (ATCC 43545), isolated from human with Crohn's disease; assay type: cell-based, Mycobacterium avium subspecies paratuberculosis; conditions: vs 3.2% DMSO control
[2] = test system: MAP 303 (ruminant with Johne's disease); experiment: Radiometric BACTEC growth inhibition, MAP 303; assay type: cell-based, Mycobacterium avium subspecies paratuberculosis; conditions: Bovine MAP 303, vs 3.2% DMSO control
[3] = test system: M. avium 101; assay type: cell-based, M. avium subspecies avium; conditions: for % ΔcGI: vs 3.2% DMSO control
[4] = test system: MAP; experiment: Growth inhibition of MAP (strain not stated or MAP strains in general); conditions: MAP strains in general
[5] = test system: MAP ATCC 19698 (bovine); assay type: cell-based, Mycobacterium avium subspecies paratuberculosis; conditions: for % ΔcGI: Bovine MAP 19698, vs 3.2% DMSO control
[6] = test system: MAP UCF 4, isolated from human with Crohn's disease; experiment: Radiometric BACTEC growth inhibition, MAP UCF4; assay type: cell-based, Mycobacterium avium subspecies paratuberculosis; conditions: for % ΔcGI: Human MAP UCF4, vs 3.2% DMSO control
[7] = test system: M. avium ATCC 25291; assay type: cell-based, M. avium subspecies avium; conditions: for % ΔcGI: M. avium 25291, vs 3.2% DMSO control
[8] = test system: MAP and M. avium strains; experiment: Radiometric BACTEC growth inhibition, all strains tested; assay type: cell-based, Mycobacterium avium; conditions: any strain tested (MAP and M. avium)
[9] = test system: MAP and M. tuberculosis; assay type: in vivo, Mice; conditions: 15 μg i.p. in combination with Ag85B-ESAT-6 fusion protein, CFA then IFA; challenge at week 8
[10] = 1 μg/ml, Human MAP Dominic Expt. 1
[11] = 1 μg/ml, Human MAP Dominic Expt. 2
[12] = 4 μg/ml, Human MAP Dominic Expt. 1
[13] = 4 μg/ml, Human MAP Dominic Expt. 2
[14] = 16 μg/ml, Human MAP Dominic Expt. 1
[15] = 16 μg/ml, Human MAP Dominic Expt. 2
[16] = 64 μg/ml, Human MAP Dominic Expt. 1
[17] = 64 μg/ml, Human MAP Dominic Expt. 2

Molecule	% ΔcGI [1, 10] [%]	% ΔcGI [1, 11] [%]	% ΔcGI [1, 12] [%]	% ΔcGI [1, 13] [%]	% ΔcGI [1, 14] [%]	% ΔcGI [1, 15] [%]	% ΔcGI [1, 16] [%]	% ΔcGI [1, 17] [%]	% ΔcGI ([2]; 1 μg/ml) [%]	% ΔcGI ([2]; 4 μg/ml) [%]	% ΔcGI ([2]; 16 μg/ml) [%]	% ΔcGI ([2]; 64 μg/ml) [%]	effect on growth, in words [3]	% ΔcGI ([3]; 1 μg/ml) [%]	% ΔcGI ([3]; 4 μg/ml) [%]	% ΔcGI ([3]; 16 μg/ml) [%]	% ΔcGI ([3]; 64 μg/ml) [%]	% ΔcGI ([5]; 1 μg/ml) [%]	% ΔcGI ([5]; 4 μg/ml) [%]	% ΔcGI ([5]; 16 μg/ml) [%]	also measured
C[C@@H]1C[C@@H]([C@H](O)CC2CC(=O)NC(=O)C2)C(=O)[C@@H](C)C1 [Cycloheximide, cycloheximide]	15	9	−4	0	−8	−4	−1	−7	3	4	−5	−4	no affect	6	7	1	5	−2	−7	−12	effect on growth of MAP, in words [4]: no dose-dependent inhibition on any MAP strain; % ΔcGI ([5]; 64 μg/ml): −9%; % ΔcGI ([6]; 1 μg/ml): 1%; % ΔcGI ([6]; 4 μg/ml): −7%; % ΔcGI ([6]; 16 μg/ml): −4%; % ΔcGI ([6]; 64 μg/ml): −12%; % ΔcGI ([7]; 1 μg/ml): 0%; % ΔcGI ([7]; 4 μg/ml): −8%; % ΔcGI ([7]; 16 μg/ml): −7%; % ΔcGI ([7]; 64 μg/ml): −57%; %−ΔcGI (percent decrease in cumulative GI) ([7]; 64 μg/ml, M. avium ATCC 25291): 57%
CC[C@@]1([C@@H]2O[C@@H]([C@H]3O[C@@](O)(CO)[C@H](C)C[C@@H]3C)C[C@@H]2C)CC[C@H]([C@]2(C)CC[C@]3(C[C@H](O)[C@@H](C)[C@@H]([C@@H](C)[C@@H](OC)[C@H](C)C(=O)O)O3)O2)O1 [Monensin, monensin]	−52	−46	−77	−71	−93	−87	−94	−92	−21	−73	−94	−97	no inhibition	7	3	4	8	−14	−45	−62	effect on growth of MAP, in words [4]: dose-dependent inhibition against all MAP strains; % ΔcGI ([5]; 64 μg/ml): −65%; % ΔcGI ([6]; 1 μg/ml): −73%; % ΔcGI ([6]; 4 μg/ml): −93%; % ΔcGI ([6]; 16 μg/ml): −96%; % ΔcGI ([6]; 64 μg/ml): −97%; % ΔcGI ([7]; 1 μg/ml): −25%; % ΔcGI ([7]; 4 μg/ml): −54%; % ΔcGI ([7]; 16 μg/ml): −69%; % ΔcGI ([7]; 64 μg/ml): −87%
O=C1NC(=O)c2ccccc21 [Phthalimide, phthalimide]	−3	−1	7	0	0	1	2	4	−2	3	−13	6	no dose-dependent inhibition	−3	4	2	−2	−2	−10	1	dose-dependent inhibition, in words [8]: no dose-dependent effect on any strain tested; dose-dependent inhibition, in words ([8]; listed as phthalimide): did not exhibit a dose-dependent inhibition of any strain; % ΔcGI ([5]; 64 μg/ml): 0%; % ΔcGI ([6]; 1 μg/ml): 4%; % ΔcGI ([6]; 4 μg/ml): −2%; % ΔcGI ([6]; 16 μg/ml): 1%; % ΔcGI ([6]; 64 μg/ml): 3%; % ΔcGI ([7]; 1 μg/ml): 2%; % ΔcGI ([7]; 4 μg/ml): 4%; % ΔcGI ([7]; 16 μg/ml): 1%; % ΔcGI ([7]; 64 μg/ml): 12%; effect on growth, in words ([7]; M. avium ATCC 25291): no dose-dependent inhibition
C=CC[C@@H]1/C=C(\C)C[C@H](C)C[C@H](OC)[C@H]2O[C@@](O)(C(=O)C(=O)N3CCCC[C@H]3C(=O)O[C@H](/C(C)=C/[C@@H]3CC[C@@H](O)[C@H](OC)C3)[C@H](C)[C@@H](O)CC1=O)[C@H](C)C[C@@H]2OC [Tacrolimus, tacrolimus (FK506)]	28	5	9	9	21	−10	0	−21	5	3	−5	−27	the most inhibition on M. avium 101 of all six strains studied	−34	−43	−40	−52	8	−3	−5	effect on growth of MAP, in words [4]: the least inhibition of the three “immunosuppressants” studied; % ΔcGI ([5]; 64 μg/ml): −26%; %−ΔcGI (percent decrease in cumulative GI) ([5]; 64 μg/ml, MAP ATCC 19698): 26%; % ΔcGI ([6]; 1 μg/ml): 6%; % ΔcGI ([6]; 4 μg/ml): −19%; % ΔcGI ([6]; 16 μg/ml): −18%; % ΔcGI ([6]; 64 μg/ml): −43%; %−ΔcGI (percent decrease in cumulative GI) ([6]; 64 μg/ml, MAP UCF 4): 43%; % ΔcGI ([7]; 1 μg/ml): −23%; % ΔcGI ([7]; 4 μg/ml): −3%; % ΔcGI ([7]; 16 μg/ml): 11%; % ΔcGI ([7]; 64 μg/ml): 53%; effect on growth, in words ([7]; M. avium ATCC 25291): no inhibition; also recorded: enhanced growth
AhpD: Alkyl hydroperoxide reductase D, immunogenic MAP protein, recombinant antigen (protein, UniProt A0QGI9 1-178, looked up) Alkyl hydroperoxide reductase …: MSVENLKEALPEYAKDLKLNLGSITRTTELNEEQLWGTLLASAAATRNTQVLTEIGAEAADTLSAEAYHAALGAASVMAMNNVFYRGRGFLDGKYDDLRAGLRMNIIGNPGVEKANFELWCFAVSAINGCPDCVASHEHTLREAGVSRETIQEALKAAAIISGVAQAIVTSQTLATAG	–	–	–	–	–	–	–	–	–	–	–	–	–	–	–	–	–	–	–	–	protection against infection after immunization [9]: elicits a response capable of protecting against MAP and M. tuberculosis infection
